Laboratory results taken from ChEMBL document CHEMBL4813945, “Discovery and development of novel pyrimidine and pyrazolo/thieno-fused pyrimidine derivatives as potent and orally active inducible nitric oxide synthase dimerization inhibitor with efficacy for arthritis” (Eur J Med Chem, 2021).
Calls of active or inactive are those of the source. No cut-off for these calls is given here.

Legend:
[1] = Cmax in Sprague-Dawley rat at 1 mg/kg, iv measured after 0.08 to 24 hrs by LC-MS/MS analysis; assay type: ADME, organism-based; design: route intravenous, time upper 24 hrs, dose 1 mg/kg, time lower 0.08 hrs; conditions: in vivo
[2] = system: RAW264.7; assay: Cytotoxicity against LPS-induced mouse RAW 264.7 cells assessed as cell viability measured by MTT assay; assay type: cell-based
[3] = Acute toxicity in rat assessed as liver necrosis at 200 to 500 mg/kg measured after 7 days by H and E staining based assay; assay type: organism-based; conditions: in vivo, 168 h, dose 200-500 mg/kg, time 7 day
[4] = Subacute toxicity in rat assessed as drowsiness at 100 to 500 mg/kg, IG administered every other day for 14 days and measured every 2 days; assay type: organism-based; conditions: in vivo, po, 336 h, dose 100-500 mg/kg, time 14 day
[5] = Subacute toxicity in rat assessed as lung damage at 100 to 500 mg/kg, IG administered every other day for 14 days and measured every 2 days by H and E staining; assay type: organism-based; conditions: in vivo, po, 336 h, dose 100-500 mg/kg, time 14 day
[6] = system: Rattus norvegicus; assay: Antiinflammatory activity in complete freund's adjuvant-induced IG dosed male Sprague-Dawley rat model of arthritis assessed as decrease in IL-1beta level in serum after 4 weeks by ELISA; assay type: functional, organism-based; conditions: dose 40-80 mg/kg
[7] = Metabolic stability in human hepatocytes assessed as half life measured upto 120 mins by LC-MS/MS analysis; assay type: ADME, cell-based, Hepatocyte
[8] = Volume of distribution at steady state in Sprague-Dawley rat at 1 mg/kg, iv measured after 0.08 to 24 hrs by LC-MS/MS analysis; assay type: ADME, organism-based; conditions: in vivo, time 0.08-24 hrs, read-out: Vdss
[9] = system: Rattus norvegicus; assay: Antiinflammatory activity in complete freund's adjuvant-induced male Sprague-Dawley rat model of arthritis assessed as reduction in synovial hyperplasia at 40 to 80 mg/kg, IG after 2 weeks by Safranin O staining based histopathological analysis; assay type: functional, organism-based; conditions: dose 40-80 mg/kg
[10] = organism: Rattus norvegicus; assay: Antiinflammatory activity against freund's adjuvant-induced male Sprague-Dawley rat model of arthritis assessed as decrease INOS expression at 40 to 80, IG after 4 weeks measured by staining based immunohistochemical analysis; assay type: functional, organism-based; conditions: dose 40-80 mg/kg
[11] = Metabolic stability in rat hepatocytes assessed as parent compound remaining after 120 mins by LC-MS/MS analysis; assay type: ADME, cell-based, Hepatocyte; conditions: read-out: Stabilty
[12] = Subacute toxicity in rat assessed as heart damage at 100 to 500 mg/kg, IG administered every other day for 14 days and measured every 2 days by H and E staining; assay type: organism-based; conditions: in vivo, po, 336 h, dose 100-500 mg/kg, time 14 day

## COc1cc(/C=C/c2nc(NCc3ccc(C)cc3)c3sccc3n2)cc(OC)c1OC
[1]
  Cmax: 388 ng/mL
[2]
  IC50: > 50 µM
[3]
  Activity: Toxic
[4]
  Activity: Non-Toxic
[5]
  Activity: Non-Toxic
[6]
  Activity: Dose-Dependent Effect
[7]
  half-life: 5.44 h
[8]
  Vd: 11.3 L/kg
[9]
  Activity: Active
[10]
  Activity: Active
[11]
  remaining at 2 h: 22.2%
[12]
  Activity: Non-Toxic
